TGI and GI50 data for 29 molecules are collected here from PubChem BioAssay (NCI).

By TGI is commonly meant the concentration giving total growth inhibition. Lower therefore signals more potent growth arrest. The term GI50 denotes the concentration that inhibits growth by half.

Test systems include LXFL 529 NSCLC; M19-MEL melanoma; KM20L2 colon; XF 498 CNS; HOP-18 NSCLC; MCF7 breast; T-47D breast; MDA-MB-231 breast; HS 578T breast; DU-145 prostate.
What all share (test): DTP human tumour cell line panel, 48 h

Values joined by “and” are separate entries in the source; they are usually repeats but may differ in a detail not shown here. Equal values may be shown once.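 How tested: cells in 96-well plates exposed to compound for 48 hours at five concentrations. Abbreviation: GI50, concentration required for 50% inhibition of growth. TGI: concentration producing complete growth inhibition.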 A value given as a limit tells only on which side of the number the result lay.

Consider `CCC(=O)Nc1nc2c(ncn2C2OC(COC(=O)CC)C(OC(=O)CC)C2OC(=O)CC)c(=O)[nH]1` (configuration not stated), for which the TGI in the assay on LXFL 529 NSCLC, in the assay on M19-MEL melanoma and in the assay on KM20L2 colon was over 100 µM throughout.

For the molecule `Cc1ccccc1NC(=O)C1C(=O)N(c2ccccc2C)C(=O)/C1=N\NC(N)=S` (configuration not stated), the TGI in the assay on LXFL 529 NSCLC, in the assay with XF 498 CNS and in the assay on KM20L2 colon was over 100 µM in each case.

`O=C(O)c1ccc(C2C(=O)N[C@@H]3CCC[C@H]23)cc1` (some centres not stated): the TGI with LXFL 529 NSCLC, with M19-MEL melanoma, in the assay on HOP-18 NSCLC and in the assay with KM20L2 colon was over 100 µM each time.

Regarding `CSc1nnc(COc2ccc(Cl)cc2)o1`, the TGI in the assay with LXFL 529 NSCLC, in the assay on M19-MEL melanoma, with XF 498 CNS and in the assay on KM20L2 colon was over 100 µM each time.

With `CCCCN(CCCC)C(=O)/C(CC(=O)c1cccc2ccccc12)=N\NC(=O)c1cc2ccccc2cc1O`, the TGI is over 100 µM in the assay with LXFL 529 NSCLC, over 100 µM with M19-MEL melanoma, 88.1 µM in the assay with XF 498 CNS and 51.3 µM in the assay on KM20L2 colon.

On to `COC(=O)C1(O)CC(=O)CCC1c1ccc(OC)cc1` (configuration not stated), for which the TGI in the assay on HOP-18 NSCLC and in the assay with KM20L2 colon was over 100 µM throughout.

`CCNC(=O)COc1ccc(Cl)cc1Cl`: the TGI in the assay on LXFL 529 NSCLC, with M19-MEL melanoma, in the assay with HOP-18 NSCLC and in the assay on KM20L2 colon was over 100 µM in each case.

For `O=C(N/N=C/c1cccc(F)c1)c1ccncc1`, the TGI in the assay with LXFL 529 NSCLC, in the assay with HOP-18 NSCLC, in the assay with XF 498 CNS and in the assay on KM20L2 colon was over 100 µM each time.

On to `CC(C)(C)c1cc(C=C(C#N)C#N)cc(C(C)(C)C)c1O`, for which the TGI in the assay with MCF7 breast is 41 µM; in the assay on T-47D breast it was 0.645 µM and 5.07 µM; in the assay on LXFL 529 NSCLC, 6.59 µM; in the assay on MDA-MB-231 breast, 0.675 µM; in the assay with HS 578T breast it was 22.7 µM and 4.49 µM; with XF 498 CNS, 3.13 µM. For the same molecule, the TGI in the assay on KM20L2 colon is 73.2 µM; with DU-145 prostate, 18.5 µM and 56.8 µM. Also, the GI50 is 0.0679 µM in the assay on T-47D breast, 0.0923 µM with MDA-MB-231 breast, 0.133 µM in the assay with HS 578T breast and 0.0894 µM with DU-145 prostate.

As for `COc1ccc(C(=O)NCCN(C)C)c2nc3ccccc3nc12`, the TGI is over 37.9 µM in the assay with LXFL 529 NSCLC, 9.9 µM in the assay with M19-MEL melanoma, over 82.6 µM in the assay with HOP-18 NSCLC and 26.5 µM in the assay on KM20L2 colon.

`CC(C)(C)C(=O)[CH-]C(=O)C(C)(C)C.CC(C)(C)C(=O)[CH-]C(=O)C(C)(C)C.CN(C)c1ccc([O-])cc1.CN(C)c1ccc([O-])cc1.[Ti+4]`: the GI50 in the assay on LXFL 529 NSCLC is 57.9 µM; in the assay on M19-MEL melanoma, 79.2 µM; with HOP-18 NSCLC, over 100 µM; in the assay with KM20L2 colon, over 100 µM. For the same molecule, the TGI in the assay on LXFL 529 NSCLC, in the assay on M19-MEL melanoma, in the assay with HOP-18 NSCLC and in the assay with KM20L2 colon was over 100 µM each time.

For `NC(=S)NN/C=C(\C=Nc1ccccc1)[N+](=O)[O-]`, the TGI in the assay with LXFL 529 NSCLC, in the assay with M19-MEL melanoma, in the assay with XF 498 CNS and with KM20L2 colon was over 100 µM each time.

With `N/N=C1\C(=O)N(CCc2ccccc2)C(=O)C1C(=O)NCCc1ccccc1` (configuration not stated), the TGI with LXFL 529 NSCLC, in the assay with M19-MEL melanoma, with XF 498 CNS and in the assay with KM20L2 colon was over 100 µM in each case.

On to `COc1ccc(OC)c(Cn2cc3c(c2-c2ccccc2)CCc2cnoc2-3)c1`, for which the GI50 with MCF7 breast is 4.47 µM; with T-47D breast, 18.1 µM; with MDA-MB-231 breast, 5.98 µM; in the assay on HS 578T breast it was 4.95 µM; in the assay on DU-145 prostate, 17.4 µM. Moreover, the TGI in the assay on MCF7 breast, in the assay with T-47D breast, with MDA-MB-231 breast, with HS 578T breast and in the assay on DU-145 prostate was over 100 µM each time.

In the case of `O=C(N[C@@H](C[Se][Se]C[C@H](NC(=O)c1ccc(Br)cc1F)C(=O)O)C(=O)O)c1ccc(Br)cc1F`, the GI50 in the assay on MCF7 breast is 60.8 µM; with T-47D breast, over 100 µM; in the assay on MDA-MB-231 breast it was over 100 µM; with HS 578T breast, over 100 µM; in the assay on DU-145 prostate, over 100 µM. For the same molecule, the TGI in the assay with MCF7 breast, with T-47D breast, in the assay on MDA-MB-231 breast, in the assay with HS 578T breast and with DU-145 prostate was over 100 µM each time.

On to `C/C(=N\NC(=O)CC#N)c1c(O)cc(C)oc1=O`, for which the TGI in the assay with LXFL 529 NSCLC, in the assay with M19-MEL melanoma, with HOP-18 NSCLC and in the assay on KM20L2 colon was over 100 µM throughout.

For the molecule `O=C(/C=C/c1ccccc1)CC(=O)CCC(=O)Nc1ccc(Cl)cc1`, the TGI with LXFL 529 NSCLC, in the assay on M19-MEL melanoma, with HOP-18 NSCLC and in the assay with KM20L2 colon was over 100 µM each time.

As for `CCOC(=O)C1SC(=Nc2ccc(Cl)cc2)N=C1C` (configuration not stated), the TGI with M19-MEL melanoma was determined as 33 µM; with HOP-18 NSCLC, 42.5 µM; in the assay on XF 498 CNS it was 34.2 µM; in the assay with KM20L2 colon it was 33.4 µM.

On to `Cc1cc(N(CCC#N)CCC#N)ccc1/C=C(\NC(=O)/C=C/c1ccccc1)C(=O)NN`, for which the TGI in the assay on MCF7 breast was over 100 µM; with T-47D breast it was over 100 µM; in the assay with LXFL 529 NSCLC, over 100 µM; in the assay with M19-MEL melanoma, over 100 µM; in the assay on MDA-MB-231 breast, over 100 µM; with HS 578T breast, 77.5 µM. For the same molecule, the TGI in the assay on XF 498 CNS, with KM20L2 colon and with DU-145 prostate was over 100 µM each time.

Regarding `O=S(=O)(CCCl)c1ccc(Cl)cc1`, the GI50 is 2.19 µM with MCF7 breast; 3.69 µM in the assay with T-47D breast; 2.55 µM in the assay on MDA-MB-231 breast; 3 µM in the assay on HS 578T breast; 3.33 µM in the assay on DU-145 prostate. Further, the TGI in the assay on MCF7 breast was 10.3 µM; in the assay with T-47D breast it was 19.9 µM; in the assay with MDA-MB-231 breast, 9.03 µM; in the assay with HS 578T breast it was 19.2 µM; with DU-145 prostate it was 12.3 µM.

`O=C(Nc1ccc(Cl)c(Cl)c1)NS(=O)(=O)c1cnccc1Oc1ccc(F)cc1`: the GI50 with MCF7 breast is 2.37 µM; in the assay on T-47D breast it was 2.8 µM; in the assay with MDA-MB-231 breast it was 5.5 µM; with HS 578T breast, 3.25 µM; in the assay on DU-145 prostate it was 4.19 µM. Besides, the TGI is 7.8 µM in the assay on MCF7 breast; 8.54 µM in the assay on T-47D breast; 38.5 µM with MDA-MB-231 breast; over 100 µM in the assay with HS 578T breast; 28.8 µM in the assay on DU-145 prostate.

`CC(C)(C)OC(=O)NCCCCCCCn1c2c(c3ccccc3c1=O)C(=O)c1ccccc1-2`: the GI50 in the assay with MCF7 breast was 55.4 µM; in the assay on T-47D breast, 16.4 µM; with MDA-MB-231 breast, 29.5 µM; in the assay with HS 578T breast, 17.4 µM; in the assay with DU-145 prostate it was 31.8 µM. Further, the TGI in the assay with MCF7 breast is over 100 µM; in the assay on T-47D breast it was 78.1 µM; with MDA-MB-231 breast, over 100 µM; with HS 578T breast, 49.5 µM; in the assay on DU-145 prostate, over 100 µM.

As for `O=C(O)[C@@H](Cc1ccc2ccccc2c1)NC(=O)n1c2ccccc2c2ccccc21`, the GI50 is 2.42 µM with MCF7 breast; 11.6 µM in the assay with T-47D breast; 3.65 µM in the assay with MDA-MB-231 breast; 2.24 µM in the assay on HS 578T breast; 3.4 µM with DU-145 prostate. Moreover, the TGI was over 100 µM with MCF7 breast; over 100 µM in the assay with T-47D breast; 17.3 µM in the assay on MDA-MB-231 breast; 59.6 µM with HS 578T breast; over 100 µM with DU-145 prostate.

As for `CC(=O)OCC1OC(N2C(=O)C(=O)c3ccccc32)C(OC(C)=O)C(OC(C)=O)C1OC(C)=O` (configuration not stated), the TGI in the assay with LXFL 529 NSCLC, with M19-MEL melanoma and in the assay with KM20L2 colon was over 100 µM in each case.

Turning to `COc1ccc2c(c1)/C(=C/c1cc(OC)c(OC)c(OC)c1)C(=O)N2`, the GI50 was 0.35 µM in the assay on MCF7 breast; 0.385 µM with T-47D breast; 1.51 µM in the assay with MDA-MB-231 breast; 0.362 µM with HS 578T breast; 0.655 µM in the assay on DU-145 prostate. Besides, the TGI in the assay on MCF7 breast is over 100 µM; in the assay with MDA-MB-231 breast it was 66.8 µM; in the assay on HS 578T breast it was 12.8 µM; with DU-145 prostate it was over 100 µM.

For the molecule `c1c[nH]c(CN2CCOCC2)n1`, the TGI with MCF7 breast, in the assay with T-47D breast, in the assay on MDA-MB-231 breast, with HS 578T breast and with DU-145 prostate was over 100 µM throughout.

`O=C(O)[C@H](c1ccccc1)[C@@H](C(=O)O)c1ccccc1`: the TGI in the assay with MCF7 breast, with T-47D breast, in the assay with MDA-MB-231 breast, with HS 578T breast and in the assay on DU-145 prostate was over 100 µM throughout.

`O=C1CCCCN1CCCCC#Cc1cccc(C#Cc2cccnc2)c1`: the GI50 in the assay on MCF7 breast was 30.4 µM; in the assay with T-47D breast it was 5.66 µM; with MDA-MB-231 breast it was 12 µM; in the assay with HS 578T breast it was 28.5 µM; with DU-145 prostate, 43.2 µM. The TGI in the assay with MCF7 breast is over 100 µM; with T-47D breast, 26 µM; in the assay with MDA-MB-231 breast, 27.7 µM; in the assay on HS 578T breast, over 100 µM; in the assay on DU-145 prostate it was over 100 µM.

Turning to `C[N+](C)(C)CC1CCCCC1O` (configuration not stated), the TGI with LXFL 529 NSCLC, in the assay with M19-MEL melanoma, in the assay on HOP-18 NSCLC and in the assay with KM20L2 colon was over 100 µM each time.
